Consider 10 compounds from ChEMBL document CHEMBL1201862, “PubChem BioAssay data set” (2004).

Common to all, as to assay: NCI anticancer screen, dose series, 48 h
Assay [1] deals with COLO 205.
In assay [2] the test system is MOLT-4.
Assay [3] deals with RXF 393.
For assay [4], the system named is Malme-3M.
Assay [5] deals with OVCAR-5.
The subject of assay [6] is UACC-62.
The test system of assay [7] is IGROV-1.
Assay [8] has as its system NCI-H23.
The test system of assay [9] is NCI-H522.
Assay [10] concerns EKVX.
In assay [11] the test system is UACC-257.
For assay [12], the system named is A498.
Assay [13] relates to CCRF-CEM.
Assay [14] deals with T47D.
The subject of assay [15] is RPMI-8226.
Assay [16] relates to SNB-19.
Assay [17] has as its system Hs-578T.
Assay [18] concerns HT-29.
The subject of assay [19] is SK-MEL-28.
Assay [20] concerns OVCAR-3.

Molecules are shown by their SMILES.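 Growth conditions: 96-well plates. Treatment: test compound, 48 hours, 5 concentrations. Analysis: linear interpolation between bracketing concentrations; unreached endpoints set to highest concentration. Here, GI50 denotes the concentration required for 50% inhibition of growth.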 Active and inactive are the calls of the source. Cut-off read from the data, not from the text of the source: active = GI50 up to about 1.1 µM and inactive = higher. Residues, ends and D or L forms follow the SMILES beside them. *: point of attachment. Boc = CC(C)(C)OC(=O)*; Bz = O=C(c1ccccc1)*

Take `CC(C)Oc1c(-c2c(OC(C)C)c(=O)c2=O)c(=O)c1=O`: the GI50 is > 29.7 µM (inactive) in assay [1]; > 36.6 µM (inactive) in assay [2]; > 56.6 µM (inactive) in [3]; 0.344 µM (active) in [4]; > 100 µM (inactive) in assay [5]; > 40 µM (inactive) in assay [6]. Further, the GI50 in assay [7] was > 31.7 µM (inactive); in [8] it was > 52.8 µM (inactive); in assay [9], > 20.1 µM (inactive); in assay [10], > 48.5 µM (inactive); in assay [11] it was > 56.4 µM (inactive); in assay [12], > 100 µM (inactive). For the same compound, the GI50 in [13] was > 52 µM (inactive); in assay [14] it was > 100 µM (inactive); in assay [15] it was 29.9 µM (inactive); in [16], > 69 µM (inactive); in assay [17], > 41.9 µM (inactive); in [18], > 23.1 µM (inactive). Moreover, the GI50 in assay [19] was > 68.2 µM (inactive).

On to `O=S(=O)(O)c1ccc(Nc2ccnc3ccccc23)cc1`, for which the GI50 in assay [1], in assay [2], in assay [3], in [4], in [5] and in assay [6] was > 100 µM (inactive) throughout. Besides, the GI50 in [7], in [8], in [9], in [10], in [11] and in [12] was > 100 µM (inactive) throughout. In addition, the GI50 in [13], in assay [14], in assay [15], in assay [16], in assay [17] and in [18] was > 100 µM (inactive) throughout. Further, the GI50 in assay [19] was > 100 µM (inactive).

For the compound `CCOP(=O)(OCC)/C(=C\n1ccc(=O)[nH]c1=S)C(=O)OC`, the GI50 in [1], in [2], in assay [3], in [4], in assay [5] and in assay [6] was > 100 µM (inactive) in each case. The GI50 in [7], in assay [8], in assay [9], in assay [10], in [11] and in assay [12] was > 100 µM (inactive) each time. Also, the GI50 in [13] was > 100 µM (inactive); in assay [14], > 100 µM (inactive); in [15], > 100 µM (inactive); in assay [17] it was 66.2 µM (inactive); in [18] it was > 100 µM (inactive); in assay [19], > 100 µM (inactive).

Turning to `O=C(Nc1cccc([N+](=O)[O-])c1)c1nnn(-c2cccc([N+](=O)[O-])c2)c1O`, the GI50 in assay [1], in assay [2], in assay [3], in [4], in assay [5] and in assay [6] was > 100 µM (inactive) each time. Further, the GI50 in assay [7], in assay [8], in assay [9], in assay [10], in assay [11] and in assay [12] was > 100 µM (inactive) each time. The GI50 in assay [13], in [14], in [15], in assay [16], in [17] and in assay [18] was > 100 µM (inactive) throughout. The GI50 in [19] was > 100 µM (inactive).

`O=C1N=C(c2ccccc2)OC1C(=O)c1ccccc1` (configuration not stated): the GI50 in assay [1] is > 100 µM (inactive); in assay [2], > 100 µM (inactive); in assay [3], > 100 µM (inactive); in [5], > 100 µM (inactive); in assay [6], > 100 µM (inactive); in [7], 46.5 µM (inactive). The GI50 in [20], in [8], in assay [9], in assay [10], in assay [11] and in [12] was > 100 µM (inactive) each time. For the same compound, the GI50 in assay [13], in assay [14], in assay [15], in assay [16], in assay [17] and in [18] was > 100 µM (inactive) throughout. The GI50 in assay [19] is > 100 µM (inactive).

With `O=C1OC[C@@H]2[C@@H](O)CCCCCN12`, the GI50 in assay [1], in assay [2], in assay [3], in assay [5], in [6] and in assay [7] was > 100 µM (inactive) throughout. In addition, the GI50 in assay [20], in assay [9], in assay [10], in [11], in [12] and in assay [13] was > 100 µM (inactive) each time. For the same compound, the GI50 in [14], in assay [15], in assay [16], in assay [17], in assay [18] and in [19] was > 100 µM (inactive) throughout.

As for `CSc1ccc(-c2cc(-c3nc4ccccc4[nH]3)no2)cc1`, the GI50 in assay [1] was 23.9 µM (inactive); in assay [2], 8.34 µM (inactive); in assay [4], 35 µM (inactive); in [5], > 100 µM (inactive); in [6], 16.4 µM (inactive); in assay [7], 23.2 µM (inactive). Besides, the GI50 was 22.1 µM (inactive) in [20]; 19.1 µM (inactive) in assay [8]; 20.3 µM (inactive) in [9]; 24.7 µM (inactive) in [10]; 30.2 µM (inactive) in [11]; 30.8 µM (inactive) in assay [12]. In addition, the GI50 in assay [13] was 18.4 µM (inactive); in [14] it was 5.77 µM (inactive); in [15] it was 24.4 µM (inactive); in [16], 40.3 µM (inactive); in assay [17] it was 37.1 µM (inactive); in assay [18], 24.8 µM (inactive). The GI50 in assay [19] was 27.6 µM (inactive).

`CC(NC(=O)C(Cc1ccc(OC(=O)c2ccccc2)cc1)NC(=O)OC(C)(C)C)C(=O)NC(Cc1ccccc1)C(=O)NCC(N)=O` (configuration not stated) (Boc-Y(Bz)AFG-NH2; configuration not given here): the GI50 in assay [1] was 29.1 µM (inactive); in assay [2] it was 29.3 µM (inactive); in assay [3] it was 20.9 µM (inactive); in assay [4] it was 20.8 µM (inactive); in assay [5] it was 24.4 µM (inactive); in [6], 18.8 µM (inactive). For the same compound, the GI50 in [7] was 20.4 µM (inactive); in assay [8], 23.2 µM (inactive); in [9], 17.9 µM (inactive); in [11] it was 19.1 µM (inactive); in assay [12] it was 21.6 µM (inactive); in assay [13], 77.8 µM (inactive). Moreover, the GI50 in [14] was 20.9 µM (inactive); in assay [15], 24 µM (inactive); in assay [16] it was 18.6 µM (inactive); in assay [17] it was 20.3 µM (inactive); in [18] it was 19.1 µM (inactive); in [19], 28.7 µM (inactive).

Regarding `CCCCCC(=O)N[C@@H](c1ccccc1)C(O)C(=O)OC1C[C@@]2(O)C(OC(=O)c3ccccc3)C3[C@](C)(C(=O)[C@H](O)C(=C1C)C2(C)C)C(OC1OCC(O)C(O)C1O)C[C@H]1OC[C@@]31OC(C)=O` (some centres not stated), the GI50 in [1] is 0.665 µM (active); in assay [2], 2.45 µM (inactive); in assay [3] it was 1.98 µM (inactive); in assay [5] it was > 20.7 µM (inactive); in assay [6], 3.57 µM (inactive); in assay [7] it was 3.99 µM (inactive). In addition, the GI50 in [20] was 0.706 µM (active); in assay [8], 3.68 µM (inactive); in assay [9], 0.245 µM (active); in assay [10] it was > 64.7 µM (inactive); in assay [11], > 100 µM (inactive); in [12] it was 25.5 µM (inactive). The GI50 in assay [13] is 1.57 µM (inactive); in [14] it was 1.76 µM (inactive); in assay [15], 0.486 µM (active); in assay [16], 4.91 µM (inactive); in [17], 0.198 µM (active); in assay [18], 1.19 µM (inactive). For the same compound, the GI50 in assay [19] is 2.7 µM (inactive).

As to `COc1ccc2c(c1)C1OCCNC1CC2` (configuration not stated), the GI50 in assay [1], in [2], in assay [3], in [4], in assay [5] and in assay [6] was > 100 µM (inactive) in each case. Besides, the GI50 in assay [7] is > 100 µM (inactive); in assay [8] it was > 100 µM (inactive); in assay [9] it was > 100 µM (inactive); in [10] it was > 100 µM (inactive); in assay [11] it was > 100 µM (inactive); in [12], 40.6 µM (inactive). Moreover, the GI50 in assay [13], in assay [14], in assay [15], in assay [16], in assay [17] and in assay [18] was > 100 µM (inactive) in each case. Besides, the GI50 in assay [19] was > 100 µM (inactive).
